Assay results from ChEMBL document CHEMBL1201862, “PubChem BioAssay data set” (2004).
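Tested at 5 concentrations; 48 h exposure; 96-well plates; endpoints linearly interpolated, else capped at highest concentration. GI50 = concentration required for 50% inhibition of growth.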 The source made the active and inactive calls. Cut-off read from the data, not from the text of the source: active = GI50 up to about 1.1 µM and inactive = higher.

How the values were obtained:
Assay in all cases: NCI-60 cell line screen, 48 h
PC-3 = tested on: PC-3
UACC-257 = tested on: UACC-257
OVCAR-5 = tested on: OVCAR-5
A498 = tested on: A498
K562 = tested on: K562
MOLT-4 = tested on: MOLT-4
MDA-MB-435 = tested on: MDA-MB-435
U-251 = tested on: U-251
SF-295 = tested on: SF-295
BT-549 = tested on: BT-549
UACC-62 = tested on: UACC-62
UO-31 = tested on: UO-31
LOX IMVI = tested on: LOX IMVI
T47D = tested on: T47D
NCI-H460 = tested on: NCI-H460
Hs-578T = tested on: Hs-578T
NCI-H23 = tested on: NCI-H23
SR = tested on: SR
NCI-H226 = tested on: NCI-H226
NCI/ADR-RES = tested on: NCI/ADR-RES
HOP-92 = tested on: HOP-92
TK-10 = tested on: TK-10
A549 = tested on: A549
MCF7 = tested on: MCF7
OVCAR-8 = tested on: OVCAR-8
HT-29 = tested on: HT-29
SK-MEL-28 = tested on: SK-MEL-28
SN12C = tested on: SN12C
CAKI-1 = tested on: CAKI-1
786-0 = tested on: 786-0
SF-268 = tested on: SF-268
Malme-3M = tested on: Malme-3M
M14 = tested on: M14
KM12 = tested on: KM12
OVCAR-3 = tested on: OVCAR-3
HOP-62 = tested on: HOP-62
DU-145 = tested on: DU-145
SF-539 = tested on: SF-539
MDA-MB-231 = tested on: MDA-MB-231
SK-OV-3 = tested on: SK-OV-3
SNB-19 = tested on: SNB-19
EKVX = tested on: EKVX
HCT-116 = tested on: HCT-116
HCT-15 = tested on: HCT-15
ACHN = tested on: ACHN
SK-MEL-5 = tested on: SK-MEL-5
COLO 205 = tested on: COLO 205
IGROV-1 = tested on: IGROV-1
HL-60 = tested on: HL-60
OVCAR-4 = tested on: OVCAR-4
SNB-75 = tested on: SNB-75
NCI-H522 = tested on: NCI-H522
SK-MEL-2 = tested on: SK-MEL-2

COc1cc2nc(-c3cccs3)nc(N3C(c4cc(OC)c(OC)c(OC)c4)=NNC(=O)c4ccccc43)c2cc1OC
GI50 (PC-3): 29.6 µM (inactive) | GI50 (UACC-257): 35.3 µM (inactive) | GI50 (OVCAR-5): 21.8 µM (inactive) | GI50 (A498): > 100 µM (inactive) | GI50 (K562): 8.34 µM (inactive) | GI50 (MOLT-4): > 100 µM (inactive) | GI50 (MDA-MB-435): 13.9 µM (inactive) | GI50 (U-251): 15.8 µM (inactive) | GI50 (SF-295): 17.9 µM (inactive) | GI50 (BT-549): 18.9 µM (inactive) | GI50 (UACC-62): 17.4 µM (inactive) | GI50 (UO-31): 27.4 µM (inactive) | GI50 (LOX IMVI): 15.8 µM (inactive) | GI50 (T47D): 39 µM (inactive) | GI50 (NCI-H460): 4.82 µM (inactive) | GI50 (Hs-578T): 38.9 µM (inactive) | GI50 (NCI-H23): 14 µM (inactive) | GI50 (SR): 6.93 µM (inactive) | GI50 (NCI-H226): > 100 µM (inactive) | GI50 (NCI/ADR-RES): 3.4 µM (inactive) | GI50 (HOP-92): 78.5 µM (inactive) | GI50 (TK-10): 22.8 µM (inactive) | GI50 (A549): 31.1 µM (inactive) | GI50 (MCF7): 46.3 µM (inactive) | GI50 (OVCAR-8): 3.4 µM (inactive) | GI50 (HT-29): 23.3 µM (inactive) | GI50 (SK-MEL-28): 21.9 µM (inactive) | GI50 (SN12C): 21.2 µM (inactive) | GI50 (CAKI-1): 52.8 µM (inactive) | GI50 (786-0): 35.6 µM (inactive) | GI50 (SF-268): 12 µM (inactive) | GI50 (Malme-3M): 18.7 µM (inactive) | GI50 (M14): 15.3 µM (inactive) | GI50 (KM12): 18.5 µM (inactive) | GI50 (OVCAR-3): 6.43 µM (inactive) | GI50 (HOP-62): 66.8 µM (inactive) | GI50 (DU-145): 29 µM (inactive) | GI50 (SF-539): 21.8 µM (inactive) | GI50 (MDA-MB-231): 16.7 µM (inactive) | GI50 (SK-OV-3): 71.1 µM (inactive) | GI50 (SNB-19): 16.4 µM (inactive) | GI50 (EKVX): 30.8 µM (inactive) | GI50 (HCT-116): > 100 µM (inactive) | GI50 (HCT-15): 13.5 µM | GI50 (ACHN): 44.1 µM (inactive) | GI50 (SK-MEL-5): 34.9 µM (inactive) | GI50 (COLO 205): > 100 µM (inactive) | GI50 (IGROV-1): 33.9 µM (inactive) | GI50 (HL-60): 54.7 µM (inactive) | GI50 (OVCAR-4): 13.9 µM (inactive) | GI50 (SNB-75): 25.7 µM (inactive) | GI50 (NCI-H522): 38 µM (inactive) | GI50 (SK-MEL-2): 76 µM (inactive)
